Experiments:
[1] = test system: schizophrenic inpatients on long-term stable antipsychotic treatment; assay: Tardive dyskinesia study in schizophrenic inpatients (AIMS); format: in vivo, human; conditions: add on to antipsychotic treatment, 2.5 to 20 mg b.i.d., versus placebo period
Protocol: dyskinesia is a common adverse effect of long-term treatment with neuroleptics. A typical study to investigate the efficacy of the compounds according to the invention in tardive dyskinesia is described in the following. 32 schizophrenic (DSM-III-R) inpatients aged 25-60 years on long-term stable antipsychotic treatment (duration of at least 5 years) entered the study. […] The dose of blinded medication is titrated over a period of 3 weeks in a range from 2.5 to 20 mg b.i.d. Then the medication is maintained under double-blind conditions for 2 weeks. After a 2-week wash-out period, the test drugs are crossed over. Assessments of tardive dyskinesia by means of the Abnormal Involuntary Movement Scale (AIMS, see above) and of Parkinsonian extrapyramidal side effects (UPDRS, see above) are made pretreatment and posttreatment.

[2] = test system: patients with advanced idiopathic Parkinson's disease complicated by "peak-dose" dyskinesia; assay: Double-blind cross-over study, advanced idiopathic Parkinson's disease with peak-dose dyskinesia; format: in vivo, human; conditions: add on, 2.5 to 10 mg b.i.d., versus placebo; first hour in the on state
Text: A typical study to investigate the efficacy of the compounds according to the invention for adverse effects in Parkinson's disease is described in the following. 40 patients of either sex with advanced idiopathic Parkinson's disease complicated by “peak-dose” dyskinesia participate in a double-blind, cross-over study. The main inclusion criteria are Hoehn & Yahr stage ≧2.5 (lit.: Hoehn H. M. et al, Neurology 1967; 17: 427-442), aged 40-75 years, symptom duration of at least 5 years, and a I-dopa treatment duration of at least 3 years. […] The dose of blinded medication is titrated over a period of 3 weeks in a range from 2.5 to 10 mg b.i.d. Then the medication is kept constant for 1 week. Before the start of titration and at the end of the treatment period a I-dopa challenge is performed according to […] et al. (Movement Disord, 1999, 14 (Suppl. 1), 54-59) using video recording. The main outcome measure of the protocol is the mean score for dyskinesia during the first hour in the “on” state after I-dopa challenge. Therefore, the investigator assesses every minute the severity of dyskinesia (0=absent, 4=severe disabling involuntary movements) from 0 to 4 in seven parts of the body (upper and lower limbs, face, trunk, neck). After a 2-week wash-out period the two study arms are crossed over and the protocol is repeated.

[3] = test system: patients with Huntington's disease; assay: Trial in patients with Huntington's disease; format: in vivo, human; conditions: add on, 2.5 to 20 mg b.i.d., versus placebo
Protocol: A typical trial to establish the effect of the compounds according to the invention on chorea, voluntary motor performance, and functional disability in patients with Huntington's disease encompasses 32 genetically diagnosed patients. […] The dose of blinded medication is titrated over a period of 3 weeks in a range from 2.5 to 20 mg b.i.d. Then the medication is held constant for 1 week. Assessments are performed in the week before and at the last day of the trial. Chorea is scored using the abnormal involuntary movement scale (AIMS, W. Guy, in: ECDEU assessment manual. Rockville Md.: US dept. of health, education and welfare, 1976: 534-537), the unified Huntington's disease rating scale (UHDRS, Huntington study group, 1996, Movement Disord, 11: 136-42), and judgement of video recordings. Voluntary motor performance is assessed using the UHDRS motor scale. Patients and their partners complete a questionnaire regarding functional disability.

MSA patients = assay: Study in MSA patients (UPDRS); format: in vivo, human; conditions: add on, 2.5 to 20 mg b.i.d., versus placebo, cross-over
Protocol: A typical study to investigate the efficacy of the compounds according to the invention in MSA patients encompasses 30 patients of either sex with a symptom duration of at least 5 years and a significant reduction of central dopamine receptors in positron emission tomography (PET) scan. The study design is similar to that described above for Parkinson's disease. […] Before the start of titration and at the end of the treatment period a complete UPDRS assessment is performed in each patient (primary outcome measure). After a 2-week wash-out period the two study arms are crossed over and the protocol is repeated.

[4] = test system: patients with cervical dystonia (spasmodic torticollis); assay: Double-blind placebo-controlled study in cervical dystonia (TWSTRS); format: in vivo, human; conditions: 2.5 mg to 20 mg b.i.d.
[5] = test system: patients with idiopathic Parkinson's disease; assay: Double-blind study in idiopathic Parkinson's disease (UPDRS); format: in vivo, human; conditions: add on, 2.5 to 10 mg b.i.d., versus placebo
Text: A typical study to investigate the efficacy of the compounds according to the invention in the treatment of idiopathic Parkinson's disease is described in the following. 180 patients of either sex with idiopathic Parkinson's disease participate in a double-blind study. The main inclusion criteria are Hoehn & Yahr stage ≧2.0 (Hoehn H. M. et al, Neurology 1967; 17: 427-442), aged 50-80 years, symptom duration of at least 5 years. […] The dose of blinded medication is titrated over a period of 4 weeks in a range from 2.5 to 10 mg b.i.d. Then the medication is kept constant for 1 week. Before the start of titration, at the end of the treatment period and 2 weeks after the end of the tiration period an assessment is performed in each patients using the unified Parkinson's disease rating scale (UPDRS part I to V according to S. Fahn et al., in: Recent developments in Parkinson's disease, vol. 2, MacMillan health information 1987, 153-163). […] Furthermore, the efficacy to treat tremor is shown by the means of the UPDRS.

Parkinson patients = conditions: literature reports; cited from earlier work

Row | SMILES | AIMS scores [1] | mean dyskinesia scores after I-dopa challenge [2] | involuntary motor performance (chorea) ([3]; AIMS, UHDRS, video recordings) | voluntary motor performance ([3]; UHDRS motor scale) | UPDRS (MSA patients) | TWSTRS scores [4] | UPDRS scores [5] | anti-dyskinetic effect in Parkinson patients (Parkinson patients)
1 | Cl.Fc1ccc(-c2cncc(CNC[C@H]3CCc4ccccc4O3)c2)cc1 [(R)-(−)-2-[5-(4-fluorophenyl)-3-pyridylmethylaminomethyl]-chromane hydrochloride] | significantly lower than during placebo period | significant clinical improvement | significant improvement | significant improvement | significant clinical improvement | significant improvement | significant clinical improvement | –
2 | O=C1CC2(CCCC2)CC(=O)N1CCCCN1CCN(c2ncccn2)CC1 [buspirone] | – | – | – | – | – | – | – | moderate anti-dyskinetic properties

Reference: patent US7928128B2, “Use of(R)-(−) -2-[5-(4-fluorophenyl)-3-pyridylmethylaminomethyl]-chromane and its physiologically acceptable salts” (Merck Patent Gesellschaft mit beschrankter Haftung, priority 2000, dated 2011)
